Target: human full-length PDE2A3 enzyme (Homo sapiens (Human), UniProt O00408)
Conditions: read-out: IC50 (assay validation control); PDE2A3 SPA validation; IC50 values obtained were within 3× of literature values
Procedure: Measurement of Recombinant Human PDE2A3 Inhibition by SPA Technology
In the present assay, the activity of the test substances on human full-length PDE2A3 enzyme was determined using the [^3H]-cGMP scintillation proximity assay (SPA) modified from the Amersham TRKQ7100 instructions (GE Healthcare, USA). PDE2A3 protein was obtained from FLAG purification of sf21 insect cells using standard affinity purification procedures for this tag (anti-FLAG M2, Sigma Aldrich). Briefly, the SPA assays were performed using PDE SPA yttrium silicate beads (Perkin Elmer RPNQ0024) which bind preferentially to the linear nucleotide, GMP, compared to the cyclic nucleotide, cGMP. The, ^3H-GMP product was detected using a Wallac MicroBeta scintillation counter. The reaction time was chosen with respect to the amount of time in which 10-20% of substrate was hydrolyzed by the enzyme.
The corresponding IC50 values of the compounds for the inhibition of PDE activities are determined from the concentration-effect curves by means of non-linear regression.

Sequence of human full-length PDE2A3 enzyme (O00408 whole entry): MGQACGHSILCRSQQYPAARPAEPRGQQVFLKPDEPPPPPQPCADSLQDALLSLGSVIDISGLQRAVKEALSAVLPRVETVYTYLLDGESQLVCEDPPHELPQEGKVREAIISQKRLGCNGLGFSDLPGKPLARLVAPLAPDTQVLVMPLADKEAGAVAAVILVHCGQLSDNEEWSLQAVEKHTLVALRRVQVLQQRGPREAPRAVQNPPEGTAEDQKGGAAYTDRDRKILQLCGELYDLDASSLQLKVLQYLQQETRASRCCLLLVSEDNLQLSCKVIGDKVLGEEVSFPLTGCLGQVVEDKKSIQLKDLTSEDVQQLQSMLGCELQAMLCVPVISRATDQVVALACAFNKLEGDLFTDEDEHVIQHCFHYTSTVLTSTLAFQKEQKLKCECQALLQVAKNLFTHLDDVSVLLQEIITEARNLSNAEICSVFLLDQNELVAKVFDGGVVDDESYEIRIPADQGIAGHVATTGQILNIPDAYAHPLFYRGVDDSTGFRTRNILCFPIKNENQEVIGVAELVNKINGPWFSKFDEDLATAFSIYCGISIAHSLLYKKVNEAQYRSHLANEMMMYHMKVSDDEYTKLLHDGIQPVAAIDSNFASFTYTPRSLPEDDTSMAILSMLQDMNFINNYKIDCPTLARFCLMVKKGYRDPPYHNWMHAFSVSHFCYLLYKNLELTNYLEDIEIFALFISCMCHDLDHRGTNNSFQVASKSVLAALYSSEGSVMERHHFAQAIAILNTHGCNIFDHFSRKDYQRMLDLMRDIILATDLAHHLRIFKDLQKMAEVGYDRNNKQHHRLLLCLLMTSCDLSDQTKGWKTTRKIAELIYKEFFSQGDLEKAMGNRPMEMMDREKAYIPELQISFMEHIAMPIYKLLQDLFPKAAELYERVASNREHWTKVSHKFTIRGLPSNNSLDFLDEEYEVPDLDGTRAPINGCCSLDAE

IC50: 1700 nM
SMILES: CCCCCC[C@@H]([C@@H](C)O)n1cnc2c(N)ncnc21 (racemic) [EHNA]

Source: patent publication US8598155B2, “Imidazo[5,1-f][1,2,4]triazines for the treatment of neurological disorders” (Pfizer Inc., priority 2011, dated 2013)
